We go through 24 compounds from patent US8217043B2, “Compounds and methods for their use” (Fibrogen, Inc., priority 2008, dated 2012).

One assay deals with T1, HIF-PH2 (EGLN1) (Homo sapiens, UniProt Q9GZT9).
T1 construct: made in house; host or cells: insect Hi5 cells
T1 sequence (Q9GZT9 whole entry, species assumed): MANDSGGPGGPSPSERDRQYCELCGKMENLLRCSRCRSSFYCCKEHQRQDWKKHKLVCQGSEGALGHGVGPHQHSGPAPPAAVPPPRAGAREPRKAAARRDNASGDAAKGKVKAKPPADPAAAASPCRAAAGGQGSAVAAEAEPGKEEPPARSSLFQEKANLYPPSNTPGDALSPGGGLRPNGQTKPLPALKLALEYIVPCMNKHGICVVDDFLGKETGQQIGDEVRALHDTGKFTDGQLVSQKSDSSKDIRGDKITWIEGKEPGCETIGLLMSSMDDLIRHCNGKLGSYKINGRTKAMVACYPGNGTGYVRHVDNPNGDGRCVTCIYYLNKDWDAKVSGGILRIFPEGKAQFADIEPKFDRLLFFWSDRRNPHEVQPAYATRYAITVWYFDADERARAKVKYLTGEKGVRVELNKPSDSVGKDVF
Briefly: HIF-PH assay (14CO2 capture, peptide-dependent turnover). Format: biochemical. The note with it: Concentration 50 μM. The text has this:
Ketoglutaric acid α-[1-^14C]-sodium salt, alpha-ketoglutaric acid sodium salt, and HPLC purified peptide may be obtained from commercial sources, e.g., Perkin-Elmer (Wellesley Mass.), Sigma-Aldrich, and SynPep Corp. (Dublin Calif.), respectively. Peptides for use in the assay may be fragments of HIFα as described above or as disclosed in International Publication WO 2005/118836, incorporated by reference herein. HIF-PH, e.g., HIF-PH2 (EGLN1), can be expressed in, e.g., insect Hi5 cells, and partially purified, e.g., through a SP ion exchange chromatography column. Enzyme activity is determined by capturing ^14CO2 using an assay described by Kivirikko and Myllyla (1982, Methods Enzymol. 82:245-304). Assay reactions contain 50 mM HEPES (pH 7.4), 100 μM α-ketoglutaric acid sodium salt, 0.30 μCi/mL ketoglutaric acid α-[1-^14C]-sodium salt, 40 μM FeSO4, 1 mM ascorbate, 1541.8 units/mL Catalase, with or without 50 μM peptide substrate and various concentrations of compound of the invention. Reactions are initiated by addition of HIF-PH enzyme.
The peptide-dependent percent turnover is calculated by subtracting percent turnover in the absence of peptide from percent turnover in the presence of substrate peptide. Percent inhibition and IC50 are calculated using peptide-dependent percent turnover at given inhibitor concentrations. Calculation of IC50 values for each inhibitor is conducted using GraFit software (Erithacus Software Ltd., Surrey UK).
Representative compounds of the invention were analyzed using the HIF-PH assay described above. Table 1 presents enzyme inhibition data for exemplary compounds against HIF-PH2, a representative HIF prolyl hydroxylase. By inhibiting HIF prolyl hydroxylase, compounds of the invention stabilize HIFα, which then combines with HIFβ to form an active transcription factor that increases expression of various genes involved in numerous beneficial cellular processes.
A word on the inhibition: it is the percentage by which the read-out fell short of the control. Read a high inhibition as a response far below the control. Turning to `O=C(O)CNC(=O)c1c(O)c2cc(Cl)c(Cl)n2n(Cc2ccc(F)cc2)c1=O` [Example 42, {[6,7-Dichloro-1-(4-fluoro-benzyl)-4-hydroxy-2-oxo-1,2-dihydro-pyrrolo[1,2-b]pyridazine-3-carbonyl]-amino}-acetic acid], the inhibition at 50 µM came out at 95%.
The same measure, in the same setting: to `O=C(O)CNC(=O)c1c(O)c2cc(Cl)cn2n(Cc2ccc(C(F)(F)F)cc2)c1=O` [Example 22, {[6-Chloro-4-hydroxy-2-oxo-1-(4-trifluoromethyl-benzyl)-1,2-dihydro-pyrrolo[1,2-b]pyridazine-3-carbonyl]-amino}-acetic acid] belongs 98%; to `CCCCn1c(=O)c(C(=O)NCC(=O)O)c(O)c2cccn21` [Example 17, [(1-Butyl-4-hydroxy-2-oxo-1,2-dihydro-pyrrolo[1,2-b]pyridazine-3-carbonyl)-amino]-acetic acid], 97%.
Same read-out and setting: to `CCCCCCn1c(=O)c(C(=O)NCC(=O)O)c(O)c2cccn21` [Example 20, [(1-Hexyl-4-hydroxy-2-oxo-1,2-dihydro-pyrrolo[1,2-b]pyridazine-3-carbonyl)-amino]-acetic acid] belongs 97%; to `O=C(O)CNC(=O)c1c(O)c2cc3ccccc3n2n(Cc2ccc(F)cc2)c1=O` [Example 18, {[4-(4-Fluoro-benzyl)-1-hydroxy-3-oxo-3,4-dihydro-4,4a-diaza-fluorene-2-carbonyl]-amino}-acetic acid], 96%.

The same assay, now with this note: Concentration 67 μM.
For the compound `C[C@H](NC(=O)c1c(O)c2cc(Cl)cn2n(Cc2cccnc2)c1=O)C(=O)O` [Example 39, 2-(S)-[(6-Chloro-4-hydroxy-2-oxo-1-pyridin-3-ylmethyl-1,2-dihydro-pyrrolo[1,2-b]pyridazine-3-carbonyl)-amino]-propionic acid], the inhibition at 67 µM worked out at 97%.
Take `CC[C@H](NC(=O)c1c(O)c2cc(Cl)cn2n(Cc2ccc(OC)cc2)c1=O)C(=O)O` [Example 33, 2-(S)-{[6-Chloro-1-(4-methoxy-benzyl)-4-hydroxy-2-oxo-1,2-dihydro-pyrrolo[1,2-b]pyridazine-3-carbonyl]-amino}-butyric acid]: the inhibition at 67 µM worked out at 88%.
On the same count and under the same terms, in the case of `CC[C@H](NC(=O)c1c(O)c2cc(Cl)cn2n(Cc2ccc(Cl)cc2)c1=O)C(=O)O` [Example 30, 2-(S)-{[6-Chloro-1-(4-chloro-benzyl)-4-hydroxy-2-oxo-1,2-dihydro-pyrrolo[1,2-b]pyridazine-3-carbonyl]-amino}-butyric acid] it was 94%; in that of `C[C@H](NC(=O)c1c(O)c2cc(Cl)cn2n(Cc2ccc(-c3ccccc3)cc2)c1=O)C(=O)O` [Example 35, 2-(S)-[(1-Biphenyl-4-ylmethyl-6-chloro-4-hydroxy-2-oxo-1,2-dihydro-pyrrolo[1,2-b]pyridazine-3-carbonyl)-amino]-propionic acid], 100%; in that of `CC[C@H](NC(=O)c1c(O)c2cc(Cl)cn2n(Cc2ccc(F)cc2)c1=O)C(=O)O` [Example 34, 2-(S)-{[6-Chloro-1-(4-fluoro-benzyl)-4-hydroxy-2-oxo-1,2-dihydro-pyrrolo[1,2-b]pyridazine-3-carbonyl]-amino}-butyric acid], 86%.
With `C[C@H](NC(=O)c1c(O)c2cc(Cl)cn2n(Cc2ccc(Cl)cc2)c1=O)C(=O)O` [Example 29, 2-(S)-{[6-Chloro-1-(4-chloro-benzyl)-4-hydroxy-2-oxo-1,2-dihydro-pyrrolo[1,2-b]pyridazine-3-carbonyl]-amino}-propionic acid], the inhibition at 67 µM stood at 100%.
The same measure, in the same setting: to `COc1ccc(Cn2c(=O)c(C(=O)N[C@@H](C)C(=O)O)c(O)c3cc(Cl)cn32)cc1` [Example 32, 2-(S)-{[6-Chloro-1-(4-methoxy-benzyl)-4-hydroxy-2-oxo-1,2-dihydro-pyrrolo[1,2-b]pyridazine-3-carbonyl]-amino}-propionic acid] belongs 97%; to `C[C@H](NC(=O)c1c(O)c2cc(Cl)cn2n(Cc2ccc(F)cc2)c1=O)C(=O)O` [Example 27, 2-(S)-{[6-Chloro-1-(4-fluoro-benzyl)-4-hydroxy-2-oxo-1,2-dihydro-pyrrolo[1,2-b]pyridazine-3-carbonyl]-amino}-propionic acid], 95%.
In the case of `O=C(O)CNC(=O)c1c(O)c2cc(Cl)cn2n(Cc2ccc(Cl)cc2)c1=O` [Example 28, {[6-Chloro-1-(4-chloro-benzyl)-4-hydroxy-2-oxo-1,2-dihydro-pyrrolo[1,2-b]pyridazine-3-carbonyl]-amino}-acetic acid], 67 µM produced 100% inhibition.
Take `COc1ccc(Cn2c(=O)c(C(=O)NCC(=O)O)c(O)c3cc(Cl)cn32)cc1` [Example 31, {[6-Chloro-1-(4-methoxy-benzyl)-4-hydroxy-2-oxo-1,2-dihydro-pyrrolo[1,2-b]pyridazine-3-carbonyl]-amino}-acetic acid]: the inhibition at 67 µM was determined as 100%.

The assay is the same for the next values; noted with them: Concentration 125 μM.
Consider `O=C(O)CNC(=O)c1c(O)c2cccn2n(Cc2ccccc2F)c1=O` [Example 5, {[1-(2-Fluoro-benzyl)-4-hydroxy-2-oxo-1,2-dihydro-pyrrolo[1,2-b]pyridazine-3-carbonyl]-amino}-acetic acid], for which 125 µM produced 96% inhibition.
Still for that read-out and setting: in the case of `O=C(O)CNC(=O)c1c(O)c2cccn2n(Cc2c(F)cccc2F)c1=O` [Example 15, {[1-(2,6-Difluoro-benzyl)-4-hydroxy-2-oxo-1,2-dihydro-pyrrolo[1,2-b]pyridazine-3-carbonyl]-amino}-acetic acid] it was 94%; in that of `O=C(O)CNC(=O)c1c(O)c2cccn2[nH]c1=O` [Example 4, [(4-Hydroxy-2-oxo-1,2-dihydro-pyrrolo[1,2-b]pyridazine-3-carbonyl)-amino]-acetic acid], 84%.

The same assay, now with this note: Concentration 200 μM.
`O=C(O)CNC(=O)c1c(O)c2cccn2n(Cc2ccc(F)cc2)c1=O` [Example 3, {[1-(4-Fluoro-benzyl)-4-hydroxy-2-oxo-1,2-dihydro-pyrrolo[1,2-b]pyridazine-3-carbonyl]-amino}-acetic acid] returned an inhibition at 200 µM of 100%.
As for `O=C(O)CNC(=O)c1c(O)c2cccn2n(Cc2ccccc2)c1=O` [Example 1, [(1-Benzyl-4-hydroxy-2-oxo-1,2-dihydro-pyrrolo[1,2-b]pyridazine-3-carbonyl)-amino]-acetic acid], the inhibition at 200 µM came out at 100%.
`O=C(O)CNC(=O)c1c(O)c2cccn2n(Cc2ccccc2Cl)c1=O` [Example 7, {[1-(2-Chloro-benzyl)-4-hydroxy-2-oxo-1,2-dihydro-pyrrolo[1,2-b]pyridazine-3-carbonyl]-amino}-acetic acid] displayed an inhibition at 200 µM of 100%.
On to `O=C(O)CNC(=O)c1c(O)c2cccn2n(Cc2ccc3ccccc3c2)c1=O` [Example 9, [(4-Hydroxy-1-naphthalen-2-ylmethyl-2-oxo-1,2-dihydro-pyrrolo[1,2-b]pyridazine-3-carbonyl)-amino]-acetic acid], for which the inhibition at 200 µM is 100%.
The compound `O=C(O)CNC(=O)c1c(O)c2cccn2n(Cc2cccc(Cl)c2)c1=O` [Example 8, {[1-(3-Chloro-benzyl)-4-hydroxy-2-oxo-1,2-dihydro-pyrrolo[1,2-b]pyridazine-3-carbonyl]-amino}-acetic acid] came in with an inhibition at 200 µM of 100%.
Still for that read-out and setting: to `O=C(O)CNC(=O)c1c(O)c2cccn2n(Cc2ccc(Cl)cc2)c1=O` [Example 11, {[1-(4-Chloro-benzyl)-4-hydroxy-2-oxo-1,2-dihydro-pyrrolo[1,2-b]pyridazine-3-carbonyl]-amino}-acetic acid] belongs 100%.
